Test results taken from US6709681B2, “Acidified nitrite as an antimicrobial agent” (Aberdeen University, priority 1995, dated 2004).
Read-outs that look alike come from different tables or passages of the source.

Columns and labels:
[1] = tested on: caries-producing organisms in dental plaque; C albicans; conditions: toothpaste, mouthwash or other orally acceptable vehicle
[2] = 45 minutes after ingestion of 200 mg potassium nitrate solution; fasting mean 114 μM
[3] = tested on: E coli (strain NCTC 10418)
Text: The results shown in FIGS. 2A and 2B are a mean of 20 experiments.
The methods are those as for FIG. 2.

C albicans = tested on: C albicans
Protocol: With reference to FIG. 1 a single colony of C albicans was used to inoculate an overnight culture in Sabouraud's broth. 10 μl of this broth was added to 940 μl of a citrate/phosphate buffered Sabouraud's broth to which was added sodium nitrite (50 μl; final concentration 250 μM) or distilled water as a control. After one hour incubation at 37° C., 10 μl was removed and cultured in 190 μl standard Sabourauds broth with continual agitation (Gallenkamp orbital incubator) in a 96-well microtitre plate at 37° C. Growth was monitored by measurement of optical density at 570 nm at regular time intervals. The results are a mean of 16 separate experiments.
The open bars show the growth of C albicans measured by the optical density method following exposure to acid alone for 1 hour, while the closed bars show growth following exposure to acid and 250 μM sodium nitrite.

## O=[N+]([O-])O [nitrate]
[1]
  reduction of caries-producing organisms in dental plaque / treatment or prevention of infection with C albicans: effective

## O=[N+]([O-])[O-].[K+] [potassium nitrate]
[2]
  salivary nitrite (mean): 1030 µM

## O=NO [sodium nitrite]
[3]; 250 μM nitrite, above pH4
  effect on E coli: no effect
[3]; 250 μM nitrite, pH 2, 3 and 4
  growth of E coli compared with control (acid alone): significantly (p<0.05) impaired
[3]; 250 μM nitrite, pH2, one hour
  survival of E coli: eliminates E coli
[3]; 250 μM nitrite, pH3 and pH4
  viability of E coli: significantly reduces the viability
[3]; pH3, 10 μM
  toxic effect on E coli: discernable effect
[3]; pH3, 1 mM
  toxic effect on E coli: killed E coli completely
[1]
  reduction of caries-producing organisms in dental plaque / treatment or prevention of infection with C albicans: effective
C albicans; 5 nN nitrite, up to pH5
  killing of C albicans: killed C albicans
C albicans; 250 μgM sodium nitrite, one hour, pH reduced to below 4
  survival of C albicans (growth by optical density): incrementally killed C albicans
C albicans; pH 1, all concentrations above 250 μM (data not shown)
  elimination of C albicans: effective in eliminating C albicans
